Legend:
[1] = target: T1, human somatostatin receptor subtype 2 (Homo sapiens, UniProt P30874); experiment: cAMP assay for SST2R (inhibition of cAMP via human SST2 receptor); type: cell-based; settings: Table B, read-out: SST2 potency
T1 construct: expressed in transfected cells
Excerpt: cAMP Assay Protocol for SST2R:

[2] = target: human somatostatin receptor subtype 5 (Homo sapiens, UniProt P35346); experiment: cAMP assay for SST5R (inhibition of cAMP via human SST5 receptor)
Sequence of human somatostatin receptor subtype 5 (P35346 whole entry): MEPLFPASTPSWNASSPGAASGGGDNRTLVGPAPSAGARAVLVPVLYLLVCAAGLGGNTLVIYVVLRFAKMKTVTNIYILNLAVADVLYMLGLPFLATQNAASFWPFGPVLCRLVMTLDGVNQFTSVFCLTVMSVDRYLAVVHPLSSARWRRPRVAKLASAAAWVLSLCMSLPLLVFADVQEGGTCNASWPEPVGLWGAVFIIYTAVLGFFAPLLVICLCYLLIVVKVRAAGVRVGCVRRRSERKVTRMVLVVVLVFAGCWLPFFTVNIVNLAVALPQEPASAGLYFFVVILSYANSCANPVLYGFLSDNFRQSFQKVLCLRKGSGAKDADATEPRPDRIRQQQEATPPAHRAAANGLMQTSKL

T1 sequence (P30874 whole entry): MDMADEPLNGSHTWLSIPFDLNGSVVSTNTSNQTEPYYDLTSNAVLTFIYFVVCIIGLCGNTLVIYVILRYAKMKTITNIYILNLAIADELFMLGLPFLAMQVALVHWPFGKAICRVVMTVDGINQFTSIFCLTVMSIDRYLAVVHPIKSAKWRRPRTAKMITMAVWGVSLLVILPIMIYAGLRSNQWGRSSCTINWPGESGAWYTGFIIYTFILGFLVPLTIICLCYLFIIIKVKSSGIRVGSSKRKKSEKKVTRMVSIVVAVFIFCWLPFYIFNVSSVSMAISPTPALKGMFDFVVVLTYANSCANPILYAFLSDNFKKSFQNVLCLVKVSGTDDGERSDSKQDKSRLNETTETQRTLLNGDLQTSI

Row | Compound | EC50 [1] [nM] | EC50 [2] [nM]
1 | N#Cc1cc(F)cc(-c2cncc(-c3nc4c(F)cccc4[nH]3)c2N2CC[C@H](N)C2)c1 [Compound 2-8, 3-{4-[(3S)-3-aminopyrrolidin-1-yl]-5-(4-fluoro-1H-1,3-benzodiazol-2-yl)pyridin-3-yl}-5-fluorobenzonitrile] | > 1000 | 
2 | CC(N)C1CN(c2c(-c3cc(F)cc(C#N)c3)cncc2-c2nc3c(F)cc(F)cc3[nH]2)C1 (stereo not shown) [Compound 1-64, 3-{4-[3-(1-aminoethyl)azetidin-1-yl]-5-(4,6-difluoro-1H-1,3-benzodiazol-2-yl)pyridin-3-yl}-5-fluorobenzonitrile] | > 1000 | 
3 | Cc1cc(F)cc(-c2cncc(-c3nc4c(F)cc(F)cc4[nH]3)c2N2CC[C@H](N)C2)c1 (stereo in doubt) [Compound 2-194, 1-[3-(4,6-difluoro-1H-1,3-benzodiazol-2-yl)-5-(3-fluoro-5-methylphenyl)pyridin-4-yl]pyrrolidin-3-amine] | 100 to 1000 | 
4 | Cc1cc(F)cc(-c2cncc(-c3nc4c(F)cccc4[nH]3)c2N2CC(CN)C2)c1 [Compound 1-2, 1-{1-[3-(4-fluoro-1H-1,3-benzodiazol-2-yl)-5-(3-fluoro-5-methylphenyl)pyridin-4-yl]azetidin-3-yl}methanamine] | > 1000 | 
5 | NCC1CN(c2c(-c3ccc4cc[nH]c4c3)cncc2-c2nc3cc(F)cc(F)c3[nH]2)C1 [Compound 1-35, 1-{1-[3-(4,6-difluoro-1H-1,3-benzodiazol-2-yl)-5-(1H-indol-6-yl)pyridin-4-yl]azetidin-3-yl}methanamine] |  | > 1000
6 | N#Cc1cccc(-c2cncc(-c3nc4c(F)cccc4[nH]3)c2N2CC(N)C(C(F)(F)F)C2)c1 (stereo not shown) [Compound 2-33, 3-{4-[3-amino-4-(trifluoromethyl)pyrrolidin-1-yl]-5-(4-fluoro-1H-1,3-benzodiazol-2-yl)pyridin-3-yl}benzonitrile] |  | 100 to 1000
7 | Cc1cccc2nc(-c3cncc(-c4cccc(C(N)=O)c4)c3N3CC[C@H](N)C3)[nH]c12 [Compound 2-97, 3-{4-[(3S)-3-aminopyrrolidin-1-yl]-5-(4-methyl-1H-1,3-benzodiazol-2-yl)pyridin-3-yl}benzamide] |  | < 10
8 | Cn1c(-c2cncc(-c3cccc(C#N)c3)c2N2CC[C@H](N)C2)nc2c(Cl)cccc21 [Compound 2-75, 3-{4-[(3S)-3-aminopyrrolidin-1-yl]-5-(4-chloro-1-methyl-1H-1,3-benzodiazol-2-yl)pyridin-3-yl}benzonitrile] |  | < 10
9 | N#Cc1cccc(-c2cncc(-c3nc4cccc(F)c4[nH]3)c2N2C[C@H](CO)[C@@H](N)C2)c1 (racemic) [Compound 2-89, 3-{4-[trans-3-amino-4-(hydroxymethyl)pyrrolidin-1-yl]-5-(4-fluoro-1H-1,3-benzodiazol-2-yl)pyridin-3-yl}benzonitrile] |  | 10 to 100

The remaining lines, values ahead:

Row | EC50 [1] [nM] | EC50 [2] [nM] | Compound
10 | 100 to 1000 |  | N#Cc1cc(-c2cncc(-c3nc4c(Cl)cccc4[nH]3)c2N2CC[C@H](N)C2)ccc1F [Compound 2-51, 5-{4-[(3S)-3-aminopyrrolidin-1-yl]-5-(4-chloro-1H-1,3-benzodiazol-2-yl)pyridin-3-yl}-2-fluorobenzonitrile]
11 |  | < 10 | Cc1cccc2nc(-c3cncc(-c4ccc(F)c(C#N)c4)c3N3CC[C@H](N)C3)n(C)c12 [Compound 2-134, 5-{4-[(3S)-3-aminopyrrolidin-1-yl]-5-(1,7-dimethyl-1H-1,3-benzodiazol-2-yl)pyridin-3-yl}-2-fluorobenzonitrile]
12 |  | 10 to 100 | NC(=O)c1cc(-c2cncc(-c3nc4cccc(F)c4[nH]3)c2N2CC[C@H](N)C2)ccc1F [Compound 2-71, 5-{4-[(3S)-3-aminopyrrolidin-1-yl]-5-(4-fluoro-1H-1,3-benzodiazol-2-yl)pyridin-3-yl}-2-fluorobenzamide]
13 |  | < 10 | N#Cc1cc(-c2cncc(-c3nc4cccc(C#N)c4[nH]3)c2N2CC[C@H](N)C2)ccc1F [Compound 2-158, 2-{4-[(3S)-3-aminopyrrolidin-1-yl]-5-(3-cyano-4-fluorophenyl)pyridin-3-yl}-1H-1,3-benzodiazole-4-carbonitrile]

Reference: patent US11608335B2, “Somatostatin modulators and uses thereof” (CRINETICS PHARMACEUTICALS, INC., priority 2018, dated 2023)
